Reference: the supplement of paper PMC11208160

Test: recombinant UMI read abundance after kanamycin selection (control-corrected) (log10(CPM+1)); higher = more efficient recombination; extreme values may be limits of the assay; sequences stand for … in AGTGCAGAGAAAATCGGCCAGTTTTCTCTGCCTGCAGTCCGCATGCCGTGGGACCCCTTGGGTTCTAACCTGTTGCCTAGATTTATGCAGCGGACTGCCTTTCTCCCAAAGTGATAAACCGG…AGGTTGGTTTCACT; site = the 11-nt donor
Procedure, shortened: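 Reported values are log10(CPM+1) from a pooled Escherichia coli screen of donor and donor-binding-loop pairs for the IS621 bridge recombinase. Selection used IPTG (0.07 mM) plus kanamycin, against unselected plating, each in two replicates. Recombinant UMIs were amplified across the donor–target junction, sequenced, converted to CPM, averaged over replicates and scaled by control-derived factors.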
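Further: IS621 bridge recombinase in Escherichia coli cells against a fixed T5 target plasmid.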

Sequence | recombinant UMI read abundance (log10)
GCCACGCCATGGACCGGTTTTCCCGGTAATCCGTATTTGAA (site GCCACGCCTTA) | 0.00688
GCCACGCCATGGACCGGTTTTCCCGGTAATCCGTATTTGAA (site GCCACGCCTTC) | 0.0229
GCCACGCCATGGACCGGTTTTCCCGGTAATCCGTATTTGAA (site GCCACGCCTTG) | 0
GCCACGCCATGGACCGGTTTTCCCGGTAATCCGTATTTGAA (site GCCACGCCTTT) | 0.0176
GCCACGCCATGGACCGGTTTTCCCGGTAATCCGTATTTGCA (site GCCACGCCTTA) | 0
GCCACGCCATGGACCGGTTTTCCCGGTAATCCGTATTTGCA (site GCCACGCCTTC) | 0.0237
GCCACGCCATGGACCGGTTTTCCCGGTAATCCGTATTTGCA (site GCCACGCCTTG) | 1.36
GCCACGCCATGGACCGGTTTTCCCGGTAATCCGTATTTGCA (site GCCACGCCTTT) | 0.0202
GCCACGCCATGGACCGGTTTTCCCGGTAATCCGTATTTGGA (site GCCACGCCTTA) | 0.00593
GCCACGCCATGGACCGGTTTTCCCGGTAATCCGTATTTGGA (site GCCACGCCTTC) | 0.0144
GCCACGCCATGGACCGGTTTTCCCGGTAATCCGTATTTGGA (site GCCACGCCTTG) | 0
GCCACGCCATGGACCGGTTTTCCCGGTAATCCGTATTTGGA (site GCCACGCCTTT) | 0.00923
GCCACGCCATGGACCGGTTTTCCCGGTAATCCGTATTTGTC (site GCCACGCCTAA) | 0
GCCACGCCATGGACCGGTTTTCCCGGTAATCCGTATTTGTC (site GCCACGCCTCA) | 0.015
GCCACGCCATGGACCGGTTTTCCCGGTAATCCGTATTTGTC (site GCCACGCCTGA) | 1.03
GCCACGCCATGGACCGGTTTTCCCGGTAATCCGTATTTGTC (site GCCACGCCTTA) | 0.0128

Sequence | recombinant UMI read abundance (log10)
GCCACGCCATGGACCGGTTTTCCCGGTAATCCGTATTTGTG (site GCCACGCCTAA) | 0.0114
GCCACGCCATGGACCGGTTTTCCCGGTAATCCGTATTTGTG (site GCCACGCCTCA) | 0.0225
GCCACGCCATGGACCGGTTTTCCCGGTAATCCGTATTTGTG (site GCCACGCCTGA) | 0
GCCACGCCATGGACCGGTTTTCCCGGTAATCCGTATTTGTG (site GCCACGCCTTA) | 0.0106
GCCACGTCATGGACCGGTTTTCCCGGTAATCCGTATTTGCA (site GCCACGTCTTG) | 2.76
GCCCACACATGGACCGGTTTTCCCGGTAATCCGTATTTGTA (site ACCCACACTTA) | 1.08
GCCCACACATGGACCGGTTTTCCCGGTAATCCGTATTTGTA (site CCCCACACTTA) | 1.37
GCCCACACATGGACCGGTTTTCCCGGTAATCCGTATTTGTA (site GCCCACACTTA) | 1.78
GCCCACACATGGACCGGTTTTCCCGGTAATCCGTATTTGTA (site TCCCACACTTA) | 1.02
GCCCACCCATGGACCGGTTTTCCCGGTAATCCGTATTTGTT (site GACCACCCTAA) | 0.0217
GCCCACCCATGGACCGGTTTTCCCGGTAATCCGTATTTGTT (site GCCCACCCTAA) | 0.051
GCCCACCCATGGACCGGTTTTCCCGGTAATCCGTATTTGTT (site GGCCACCCTAA) | 0.0315
GCCCACCCATGGACCGGTTTTCCCGGTAATCCGTATTTGTT (site GTCCACCCTAA) | 0.0135
GCCCACGCATGGACCGGTTTTCCCGGTAATCCGTATTTGGA (site GCCCACGCTTC) | 0.94
GCCCGAGCATGGACCGGTTTTCCCGGTAATCCGTATTTGGA (site GCCCGAGCTTC) | 0.73
GCCCGCACATGGACCGGTTTTCCCGGTAATCCGTATTTGTG (site GCCCGCACTCA) | 0.0672
